Key:
[1] = tested on: ABCA1 mRNA; assay: ABCA1 mRNA - HepG2 (qRT-PCR); assay type: cell-based, human; settings: Homo sapiens; ABCA1 mRNA-HepG2 assay (Table 7)
Excerpt: qRT-PCR. For cell samples, treated cells were lysed with RLT plus lysis buffer (Qiagen). RNA was isolated with Qiagen RNEASY® Plus columns per manufacturer instructions, then reverse-transcribed to cDNA using […]® III Reverse Transcriptase (200 U/μL, Invitrogen) per supplier protocol. qPCR experiments were either performed with TAQMAN® gene expression master mix (Invitrogen) on a StepOne™ qPCR instrument or with […]® SYBR® Green SuperMix (Quanta Biosciences) on CFX Connect™ Real-Time PCR Detection System (BioRad), with fold-change quantified by ΔΔCt. For animal samples, 100 mg tissue was homogenized in 1 mL acid-guanidinium-phenol based reagent sold under the tradename TRIZOL® (Ambion), mixed vigorously in chloroform, and separated by centrifugation. Aqueous layer containing RNA was added to Qiagen RNEASY® Plus column; remaining stops were as described above for cell lysates.

[2] = tested on: ABCA1; assay: ABCA1 firefly reporter assay in CCF-001 cells; assay type: cell-based; settings: ABCA1 firefly reporter assay in CCF-001 cells (Table 8)

Row | Structure (SMILES) | EC50 [1] [nM] | EC50 [2] [nM]
1 | CCOc1ccc(N(C)S(=O)(=O)c2ccsc2C(=O)Nc2cccc(C(=O)CC)c2)cc1 [CL1-62, 3-(N-(4-ethoxyphenyl)-N-methylsulfamoyl)-N-(3-propionylphenyl)thiophene-2-carboxamide] | > 5000 | 
2 | CCOc1ccc(N(C)S(=O)(=O)c2ccsc2C(=O)Nc2cccc(C(=O)OC(C)C)c2)cc1 [CL1-88, Isopropyl 3-(3-(N-(4-ethoxyphenyl)-N-methylsulfamoyl)thiophene-2-carboxamido) benzoate] | 4500 | 
3 | CCCOc1ccc(N(C)S(=O)(=O)c2ccsc2C(=O)Nc2cccc(C(=O)OCC)c2)cc1 [CL2-16, Ethyl 3-(3-(N-methyl-N-(4-propoxyphenyl)sulfamoyl)thiophene-2-carboxamido) benzoate] | 3500 | 2360
4 | CCOC(=O)c1cccc(NC(=O)c2sccc2S(=O)(=O)N(C)c2ccc(OCC)c(OCC)c2)c1 [CL2-43, Ethyl 3-(3-(N-(3,4-diethoxyphenyl)-N-methylsulfamoyl)thiophene-2-carboxamido)benzoate] | 2800 | 
5 | CCOc1ccc(N(C)S(=O)(=O)c2cc(Cl)sc2C(=O)Nc2cccc(S(C)(=O)=O)c2)cc1OCC [CL2-63, 5-Chloro-3-(N-(3,4-diethoxyphenyl)-N-methylsulfamoyl)-N-(3-(methylsulfonyl)phenyl)thiophene-2-carboxamide] | 4800 | 12600
6 | CCOc1ccc(N(C)S(=O)(=O)c2cc(Cl)sc2C(=O)Nc2cccc(C(=O)CC)c2)cc1OCC [CL2-64, 5-Chloro-3-(N-(3,4-diethoxyphenyl)-N-methylsulfamoyl)-N-(3-propionylphenyl)thiophene-2-carboxamide] | > 5000 | 
7 | CCOC(=O)c1cccc(NC(=O)c2sc(Cl)cc2S(=O)(=O)N(C)c2ccc(OCC)cc2F)c1 [CL2-143, Ethyl 3-(5-chloro-3-(N-(4-ethoxy-2-fluorophenyl)-N-methylsulfamoyl)thiophene-2-carboxamido)benzoate] | 3500 | 1620
8 | CCOC(=O)c1cccc(NC(=O)c2sc(Cl)cc2S(=O)(=O)N(C)c2ccc(N3CCNCC3)cc2)c1 [CL2-200, Ethyl 3-(5-chloro-3-(N-methyl-N-(4-(piperazin-1-yl)phenyl)sulfamoyl)thiophene-2-carboxamido)benzoate] | 3700 | 
9 | CCOC(=O)c1cccc(NC(=O)c2sc(Cl)cc2S(=O)(=O)N(C)c2ccc(OCC)c(OCC)c2)n1 [CL3-2, Ethyl 6-(5-chloro-3-(N-(3,4-diethoxyphenyl)-N-methylsulfamoyl)thiophene-2-carboxamido)picolinate] | > 5000 | 
10 | CCOc1ccc(N(C)S(=O)(=O)c2cc(Cl)sc2C(=O)Nc2cc(C(F)(F)F)cc(C(F)(F)F)c2)cc1OC [GR1-002, N-(3,5-bis (trifluoromethyl)phenyl)-5-chloro-3-(N-(4-ethoxy-3-methoxyphenyl)-N-methylsulfamoyl)thiophene-2-carboxamide] |  | 2020
11 | CCOc1ccc(N(C)S(=O)(=O)c2cc(Cl)sc2C(=O)Nc2cccc(Cl)c2)cc1OC [GR1-046, 5-Chloro-N-(3-chlorophenyl)-3-(N-(4-ethoxy-3-methoxyphenyl)-N-methylsulfamoyl)thiophene-2-carboxamide] |  | 2700
12 | CCOc1ccc(N(C)S(=O)(=O)c2cc(Cl)sc2C(=O)Nc2cccc(Br)c2)cc1OC [GR1-048, N-(3-bromophenyl)-5-chloro-3-(N-(4-ethoxy-3-methoxyphenyl)-N-methylsulfamoyl)thiophene-2-carboxamide] |  | 1240
13 | CCOc1ccc(N(C)S(=O)(=O)c2cc(Cl)sc2C(=O)Nc2cc(Cl)cc(Cl)c2)cc1OC [GR1-049, 5-Chloro-N-(3,5-dichlorophenyl)-3-(N-(4-ethoxy-3-methoxyphenyl)-N-methylsulfamoyl)thiophene-2-carboxamide] |  | 790
14 | CCOc1ccc(N(C)S(=O)(=O)c2cc(Cl)sc2C(=O)Nc2cc(F)cc(Cl)c2)cc1OC [GR1-050, 5-Chloro-N-(3-chloro-5-fluorophenyl)-3-(N-(4-ethoxy-3-methoxyphenyl)-N-methylsulfamoyl)thiophene-2-carboxamide] |  | 1090
15 | CCOc1ccc(N(C)S(=O)(=O)c2cc(Cl)sc2C(=O)Nc2cc(Cl)cc(Br)c2)cc1OC [GR1-051, N-(3-bromo-5-chlorophenyl)-5-chloro-3-(N-(4-ethoxy-3-methoxyphenyl)-N-methylsulfamoyl)thiophene-2-carboxamide] |  | 3600
16 | CCOc1ccc(N(C)S(=O)(=O)c2cc(Cl)sc2C(=O)Nc2cc(Cl)cc(C(F)(F)F)c2)cc1OC [GR1-052, 5-Chloro-N-(3-chloro-5-(trifluoromethyl)phenyl)-3-(N-(4-ethoxy-3-methoxyphenyl)-N-methylsulfamoyl)thiophene-2-carboxamide] |  | 1550
17 | CCOC(=O)c1cc(Br)cc(NC(=O)c2sc(Cl)cc2S(=O)(=O)N(C)c2ccc(OCC)c(OC)c2)c1 [GR1-054, Ethyl 3-bromo-5-(5-chloro-3-(N-(4-ethoxy-3-methoxyphenyl)-N-methylsulfamoyl)thiophene-2-carboxamido)benzoate] |  | 564
18 | CCOc1ccc(N(C)S(=O)(=O)c2cc(Cl)sc2C(=O)Nc2cc(Cl)cc(C(=O)Oc3ccccc3)c2)cc1OC [GR1-059, Phenyl 3-chloro-5-(5-chloro-3-(N-(4-ethoxy-3-methoxyphenyl)-N-methylsulfamoyl)thiophene-2-carboxamido)benzoate] |  | 135
19 | CCOc1ccc(N(C)S(=O)(=O)c2cc(Cl)sc2C(=O)Nc2cc(Cl)cc(C(=O)Oc3ccc(C(C)=O)cc3)c2)cc1OC [GR1-067, 4-Acetylphenyl 3-chloro-5-(5-chloro-3-(N-(4-ethoxy-3-methoxyphenyl)-N-methylsulfamoyl)thiophene-2-carboxamido)benzoate] |  | 11

Continued, values first:

Row | EC50 [1] [nM] | EC50 [2] [nM] | Structure (SMILES)
20 | > 5000 | 3970 | CCOc1ccc(N(C)S(=O)(=O)c2ccsc2C(=O)Nc2cccc(C(=O)OC)c2)cc1 [CL1-87, Methyl 3-(3-(N-(4-ethoxyphenyl)-N-methylsulfamoyl)thiophene-2-carboxamido) benzoate]
21 | > 5000 | 4640 | CCOC(=O)c1cccc(NC(=O)c2sccc2S(=O)(=O)N(C)c2cccc(OCC)c2)c1 [CL2-1, Ethyl 3-(3-(N-(3-ethoxyphenyl)-N-methylsulfamoyl)thiophene-2-carboxamido)benzoate]
22 | 1100 | 190 | CCOC(=O)c1cccc(NC(=O)c2sc(Cl)cc2S(=O)(=O)N(C)c2ccc(OCC)c(OC)c2)c1 [CL2-85, Ethyl 3-(5-chloro-3-(N-(4-ethoxy-3-methoxyphenyl)-N-methylsulfamoyl)thiophene-2-carboxamido)benzoate]
23 | > 5000 | 5390 | CCOC(=O)c1cccc(NC(=O)c2sc(Cl)cc2S(=O)(=O)N(C)c2ccc(OCC)nc2)c1 [CL2-159, Ethyl 3-(5-chloro-3-(N-(6-ethoxypyxidin-3-yl)-N-methylsulfamoyl)thiophene-2-carboxamido)benzoate]
24 |  | 820 | CCOc1ccc(N(C)S(=O)(=O)c2cc(Cl)sc2C(=O)Nc2cc(Cl)ccc2F)cc1OC [GR1-001, 5-Chloro-N-(5-chloro-2-fluorophenyl)-3-(N-(4-ethoxy-3-methoxyphenyl)-N-methylsulfamoyl)thiophene-2-carboxamide]
25 |  | 3080 | CCOC(=O)c1cccc(-c2nnc(-c3sc(Cl)cc3S(=O)(=O)N(C)c3ccc(OCC)c(OC)c3)o2)c1 [GR1-015, Ethyl 3-(5-(5-chloro-3-(N-(4-ethoxy-3-methoxyphenyl)-N-methylsulfamoyl)thiophen-2-yl)-1,3,4-oxadiazol-2-yl)benzoate]
26 |  | 66 | C#CCOc1ccc(C(=O)c2ccc(OC(=O)c3cc(Cl)cc(NC(=O)c4sc(Cl)cc4S(=O)(=O)N(C)c4ccc(OCC)c(OC)c4)c3)cc2)cc1 [GR1-019, 4-(4-(Prop-2-yn-1-yloxy)benzoyl)phenyl 3-chloro-5-(5-chloro-3-(N-(4-ethoxy-3-methoxyphenyl)-N-methylsulfamoyl)thiophene-2-carboxamido)benzoate]
27 |  | 2530 | CCOc1ccc(N(C)S(=O)(=O)c2cc(Cl)sc2C(=O)Nc2cccc(F)c2)cc1OC [GR1-047, 5-Chloro-3-(N-(4-ethoxy-3-methoxyphenyl)-N-methylsulfamoyl)-N-(3-fluorophenyl)thiophene-2-carboxamide]
28 |  | 578 | CCOc1ccc(N(C)S(=O)(=O)c2cc(Cl)sc2C(=O)Nc2cc(Cl)cc([N+](=O)[O-])c2)cc1OC [GR1-064, 5-Chloro-N-(3-chloro-5-nitrophenyl)-3-(N-(4-ethoxy-3-methoxyphenyl)-N-methylsulfamoyl)thiophene-2-carboxamide]
29 |  | 148 | CCOc1ccc(N(C)S(=O)(=O)c2cc(Cl)sc2C(=O)Nc2cc(Cl)cc(C(=O)Oc3ccc(C(=O)c4ccccc4)cc3)c2)cc1OC [GR1-068, 4-Benzoylphenyl 3-chloro-5-(5-chloro-3-(N-(4-ethoxy-3-methoxyphenyl)-N-methylsulfamoyl)thiophene-2-carboxamido)benzoate]
30 |  | 211 | CCOc1ccc(N(C)S(=O)(=O)c2cc(Cl)sc2C(=O)Nc2cc(Cl)cc(C(=O)Oc3ccc(C(=O)c4ccc(O)cc4)cc3)c2)cc1OC [GR1-069, 4-(4-Hydroxybenzoyl)phenyl 3-chloro-5-(5-chloro-3-(N-(4-ethoxy-3-methoxyphenyl)-N-methylsulfamoyl)thiophene-2-carboxamido)benzoate]
31 |  | 269 | O=C(O)Cc1cccc(OCCCN(Cc2cccc(C(F)(F)F)c2Cl)CC(c2ccccc2)c2ccccc2)c1 [GW3965, reference compound]

Source: patent publication US20240199572A1, “COMPOUNDS, COMPOSITIONS, AND METHODS FOR TREATING TYPE 2 DIABETES AND DEMENTIA” (THE BOARD OF TRUSTEES OF THE UNIVERSITY OF ILLINOIS, priority 2021, published 2024)
